Source: patent publication US9725459B2, “3-oxo-tetrahydro-furo[3,2-B]pyrrol-4(5H)-yl) derivatives I” (GRÜNENTHAL GMBH, priority 2014, dated 2017)
Where two headings read alike, the source gives them in different places.

What was measured:
Assay type in all cases: biochemical
human cathepsin K (CatK) = human cathepsin K (CatK) (Homo sapiens (Human), UniProt P43235); test: CatK functional enzyme assay; conditions: for Ki: recombinant human CatK, substrate Z-FR-AMC 40 μM, pH 5.5, Ki by Cheng Prusoff equation, read-out: hCatK, Ki
Sequence of human cathepsin K (CatK) (P43235 115-329): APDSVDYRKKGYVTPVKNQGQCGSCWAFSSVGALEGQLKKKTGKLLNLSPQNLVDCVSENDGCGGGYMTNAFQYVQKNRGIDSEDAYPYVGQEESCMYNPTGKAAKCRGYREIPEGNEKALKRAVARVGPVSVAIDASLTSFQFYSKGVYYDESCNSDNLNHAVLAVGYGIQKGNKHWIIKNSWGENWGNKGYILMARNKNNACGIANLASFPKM
Protocol: (§1) Reference and test compounds were assayed for inhibitory potency (IC50) against human cathepsins using the following assay setups:
(§2) Recombinant human cathepsins (CatS, CatK, CatL) were purchased from a Enzo Life Sciences. All assays were carried out in 96-well format using a buffer of 50 mM KH2PO4, 50 mM NaCl, 2 mM EDTA, 0.5 mM DTT and 1% Triton-X-100, pH 6.5 for Cathepsin S and a buffer of 50 mM NaOAc, 10 mM EDTA, 1 mM DTT and 0.01% Triton-X-100, pH 5.5 for CatK/L/B. For CatS, the enzyme (0.0007 mU/well) was incubated with fluorogeninc substrate (Z-VVR-AMC, 5 μM) at RT for 10 min. For CatK the enzyme (0.00175 mU/well) was incubated with fluorogeninc substrate (Z-FR-AMC, 40 μM) at RT for 10 min. For CatL, the enzyme (0.000874 mU/well) was incubated with fluorogeninc substrate (Z-VVR-AMC, 40 μM) at RT for 10 min. Flourogenic substrate turnover was detected using a microplate reader (Synergy™ H4, BioTek). Ki values were calculated using the Cheng Prusoff equation (Cheng & Prosoff 1973).

human cathepsin L (CatL) = human cathepsin L (CatL) (Homo sapiens (Human), UniProt P07711); test: CatL functional enzyme assay; conditions: read-out: hCatL, inhibition [%] at 31.6 μM
Sequence of human cathepsin L (CatL) (P07711 114-333): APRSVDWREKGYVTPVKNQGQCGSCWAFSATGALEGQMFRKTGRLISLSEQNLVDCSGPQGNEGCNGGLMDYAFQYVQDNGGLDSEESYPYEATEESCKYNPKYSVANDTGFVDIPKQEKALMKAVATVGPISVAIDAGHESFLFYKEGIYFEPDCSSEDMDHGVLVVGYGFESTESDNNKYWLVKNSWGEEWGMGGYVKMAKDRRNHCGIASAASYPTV
Protocol: as §1, §2

human cathepsin S (CatS) = human cathepsin S (CatS) (Homo sapiens (Human), UniProt P25774); test: CatS functional enzyme assay; conditions: for Selectivity Ki(hCatS)/Ki(hCatK): ratio Ki(hCatS)/Ki(hCatK); for Ki: read-out: hCatS, Ki; for inhibition at 10 µM: read-out: hCatS, inhibition [%] at 10 μM
Sequence of human cathepsin S (CatS) (P25774 115-331): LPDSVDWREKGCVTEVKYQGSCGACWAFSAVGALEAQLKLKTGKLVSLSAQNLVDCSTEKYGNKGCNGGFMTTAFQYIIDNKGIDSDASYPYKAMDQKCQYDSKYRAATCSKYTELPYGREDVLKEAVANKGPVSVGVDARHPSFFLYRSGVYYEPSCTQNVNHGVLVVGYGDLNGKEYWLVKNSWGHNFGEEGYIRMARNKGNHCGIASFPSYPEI
Protocol: as §2, with “Reference and test compounds were assayed for inhibitory potency (IC50) against human cathepsins using the following assay setups: Recombinant” for “Recombinant”, “All assays were carried out in 96-well format using a buffer of 50 mM KH2PO4, 50 mM NaCl, 2 mM EDTA, 0.5 mM DTT and 1% Triton-X-100, pH 6.5 for Cathepsin S and a buffer of 50 mM NaOAc, 10 mM EDTA, 1 mM DTT and 0.01% Triton-X-100, pH 5.5 for CatK/L/B.” left out

[1] = recombinant human CatS, substrate Z-VVR-AMC 5 μM, pH 6.5, Ki by Cheng Prusoff equation

Ki (human cathepsin K (CatK)) | inhibition at 31.6 µM (human cathepsin L (CatL)) | Selectivity Ki(hCatS)/Ki(hCatK) (human cathepsin S (CatS)) | Ki (human cathepsin S (CatS)) | Ki (human cathepsin S (CatS); [1]) | inhibition at 10 µM (human cathepsin S (CatS)) | inhibition at 10 µM (human cathepsin K (CatK); read-out: hCatK, inhibition [%] at 10 μM) | SMILES
3 nM | 5% | 34.3 | 103 nM |  |  |  | O=C(N[C@H](C(=O)N1C[C@H](Cl)[C@H]2OCC(=O)[C@H]21)C1CCCCC1)c1ccc(-c2ccncc2)s1 [Example 3, N-((S)-2-((3aS,6S,6aS)-6-chloro-3-oxotetrahydro-2H-furo[3,2-b]pyrrol-4(5H)-yl)-1-cyclohexyl-2-oxoethyl)-5-(pyridin-4-yl)thiophene-2-carboxamide]
11 nM | 36% | 5.5 |  | 60 nM |  |  | O=C(N[C@H](C(=O)N1C[C@H](Cl)[C@H]2OCC(=O)[C@H]21)C1CCCCC1)c1ccc(-c2cccnn2)s1 [Example 6, N-((S)-2-((3aS,6S,6aS)-6-chloro-3-oxotetrahydro-2H-furo[3,2-b]pyrrol-4(5H)-yl)-1-cyclohexyl-2-oxoethyl)-5-(pyridazin-3-yl)thiophene-2-carboxamide]
18 nM | 4% | 81.7 |  | 1470 nM |  |  | O=C(N[C@H](C(=O)N1C[C@H](Cl)[C@H]2OCC(=O)[C@H]21)C1CCCCC1)c1ccc(-c2ncccn2)s1 [Example 9, N-((S)-2-((3aS,6S,6aS)-6-chloro-3-oxotetrahydro-2H-furo[3,2-b]pyrrol-4(5H)-yl)-1-cyclohexyl-2-oxoethyl)-5-(pyrimidin-2-yl)thiophene-2-carboxamide]
 | 21% |  |  |  | 70% | 88% | Cc1nc(-c2cccnc2)sc1C(=O)N[C@H](C(=O)N1C[C@H](Cl)[C@H]2OCC(=O)[C@H]21)C1CCCCC1 [Example 14, N-((S)-2-((3aS,6S,6aS)-6-chloro-3-oxotetrahydro-2H-furo[3,2-b]pyrrol-4(5H)-yl)-1-cyclohexyl-2-oxoethyl)-4-methyl-2-(pyridin-3-yl)thiazole-5-carboxamide]
25 nM | 12% | 7.7 |  | 193 nM |  |  | O=C(N[C@H](C(=O)N1C[C@H](Cl)[C@H]2OCC(=O)[C@H]21)C1CCCCC1)c1ncc(-c2cccnn2)s1 [Example 15, N-((S)-2-((3aS,6S,6aS)-6-chloro-3-oxotetrahydro-2H-furo[3,2-b]pyrrol-4(5H)-yl)-1-cyclohexyl-2-oxoethyl)-5-(pyridazin-3-yl)thiazole-2-carboxamide]
13 nM | 15% | 19.9 |  | 259 nM |  |  | O=C(N[C@H](C(=O)N1C[C@H](Cl)[C@H]2OCC(=O)[C@H]21)C1CCCCC1)c1ccc(-c2cncc(F)c2)s1 [Example 16, N-((S)-2-((3aS,6S,6aS)-6-chloro-3-oxotetrahydro-2H-furo[3,2-b]pyrrol-4(5H)-yl)-1-cyclohexyl-2-oxoethyl)-5-(5-fluoropyridin-3-yl)thiophene-2-carboxamide]
 | 15% | 1.9 |  |  |  |  | O=C(N[C@H](C(=O)N1C[C@H](Cl)[C@H]2OCC(=O)[C@H]21)C1CCCCC1)c1cnc(-c2ccnnc2)o1 [Example 21, N-((S)-2-((3aS,6S,6aS)-6-chloro-3-oxotetrahydro-2H-furo[3,2-b]pyrrol-4(5H)-yl)-1-cyclohexyl-2-oxoethyl)-2-(pyridazin-4-yl)oxazole-5-carboxamide]
 | 18% | 2.7 |  |  |  |  | O=C(N[C@H](C(=O)N1C[C@H](Cl)[C@H]2OCC(=O)[C@H]21)C1CCCCC1)c1ccc(-c2ccncn2)o1 [Example 27, N-((S)-2-((3aS,6S,6aS)-6-chloro-3-oxotetrahydro-2H-furo[3,2-b]pyrrol-4(5H)-yl)-1-cyclohexyl-2-oxoethyl)-5-(pyrimidin-4-yl)furan-2-carboxamide]
 | 14% |  |  |  | 83% |  | O=C(N[C@H](C(=O)N1C[C@H](Cl)[C@H]2OCC(=O)[C@H]21)C1CCCCC1)c1nnc(-c2ccncc2)s1 [Example 28, N-((S)-2-((3aS,6S,6aS)-6-chloro-3-oxotetrahydro-2H-furo[3,2-b]pyrrol-4(5H)-yl)-1-cyclohexyl-2-oxoethyl)-5-(pyridin-4-yl)-1,3,4-thiadiazole-2-carboxamide]
 | 6% | 26.4 |  |  |  |  | Cc1nccc(-c2ccc(C(=O)N[C@H](C(=O)N3C[C@H](Cl)[C@H]4OCC(=O)[C@H]43)C3CCCCC3)s2)n1 [Example 29, N-((S)-2-((3aS,6S,6aS)-6-chloro-3-oxotetrahydro-2H-furo[3,2-b]pyrrol-4(5H)-yl)-1-cyclohexyl-2-oxoethyl)-5-(2-methylpyrimidin-4-yl)thiophene-2-carboxamide]
 | 15% | 21.5 |  |  |  |  | COc1ccc(-c2ccc(C(=O)N[C@H](C(=O)N3C[C@H](Cl)[C@H]4OCC(=O)[C@H]43)C3CCCCC3)s2)nn1 [Example 34, N-((S)-2-((3aS,6S,6aS)-6-chloro-3-oxotetrahydro-2H-furo[3,2-b]pyrrol-4(5H)-yl)-1-cyclohexyl-2-oxoethyl)-5-(6-methoxypyridazin-3-yl)thiophene-2-carboxamide]

More lines, now with the values behind:

SMILES | Ki (human cathepsin K (CatK)) | inhibition at 31.6 µM (human cathepsin L (CatL)) | Selectivity Ki(hCatS)/Ki(hCatK) (human cathepsin S (CatS)) | Ki (human cathepsin S (CatS)) | Ki (human cathepsin S (CatS); [1]) | inhibition at 10 µM (human cathepsin S (CatS)) | inhibition at 10 µM (human cathepsin K (CatK); read-out: hCatK, inhibition [%] at 10 μM)
O=C(N[C@H](C(=O)N1C[C@H](Cl)[C@H]2OCC(=O)[C@H]21)C1CCCCC1)c1ccc(-c2ccccn2)s1 [Example 1, N-((S)-2-((3aS,6S,6aS)-6-chloro-3-oxotetrahydro-2H-furo[3,2-b]pyrrol-4(5H)-yl)-1-cyclohexyl-2-oxoethyl)-5-(pyridin-2-yl)thiophene-2-carboxamide] | 14 nM | 3% | 28.7 | 402 nM |  |  | 
O=C(N[C@H](C(=O)N1C[C@H](Cl)[C@H]2OCC(=O)[C@H]21)C1CCCCC1)c1ccc(-c2cccnc2)s1 [Example 2, N-((S)-2-((3aS,6S,6aS)-6-chloro-3-oxotetrahydro-2H-furo[3,2-b]pyrrol-4(5H)-yl)-1-cyclohexyl-2-oxoethyl)-5-(pyridin-3-yl)thiophene-2-carboxamide] | 5 nM | 10% | 23.0 | 115 nM |  |  | 
O=C(N[C@H](C(=O)N1C[C@H](Cl)[C@H]2OCC(=O)[C@H]21)C1CCCCC1)c1ccc(-c2cnccn2)s1 [Example 4, N-((S)-2-((3aS,6S,6aS)-6-chloro-3-oxotetrahydro-2H-furo[3,2-b]pyrrol-4(5H)-yl)-1-cyclohexyl-2-oxoethyl)-5-(pyrazin-2-yl)thiophene-2-carboxamide] | 14 nM | 17% | 13.1 | 184 nM |  |  | 
O=C(N[C@H](C(=O)N1C[C@H](Cl)[C@H]2OCC(=O)[C@H]21)C1CCCCC1)c1ccc(-c2cccnc2)o1 [Example 10, N-((S)-2-((3aS,6S,6aS)-6-chloro-3-oxotetrahydro-2H-furo[3,2-b]pyrrol-4(5H)-yl)-1-cyclohexyl-2-oxoethyl)-5-(pyridin-3-yl)furan-2-carboxamide] |  | 16% | 11.3 |  |  |  | 
O=C(N[C@H](C(=O)N1C[C@H](Cl)[C@H]2OCC(=O)[C@H]21)C1CCCCC1)c1ccc(-c2cncnc2)o1 [Example 11, N-((S)-2-((3aS,6S,6aS)-6-chloro-3-oxotetrahydro-2H-furo[3,2-b]pyrrol-4(5H)-yl)-1-cyclohexyl-2-oxoethyl)-5-(pyrimidin-5-yl)furan-2-carboxamide] | 87 nM | 14% | 1.1 |  | 99 nM |  | 
O=C(N[C@H](C(=O)N1C[C@H](Cl)[C@H]2OCC(=O)[C@H]21)C1CCCCC1)c1ccc(-c2ccncc2)o1 [Example 12, N-((S)-2-((3aS,6S,6aS)-6-chloro-3-oxotetrahydro-2H-furo[3,2-b]pyrrol-4(5H)-yl)-1-cyclohexyl-2-oxoethyl)-5-(pyridin-4-yl)furan-2-carboxamide] | 50 nM | 18% | 10.4 |  | 521 nM |  | 
O=C(N[C@H](C(=O)N1C[C@H](Cl)[C@H]2OCC(=O)[C@H]21)C1CCCCC1)c1cnc(-c2cccnc2)s1 [Example 13, N-((S)-2-((3aS,6S,6aS)-6-chloro-3-oxotetrahydro-2H-furo[3,2-b]pyrrol-4(5H)-yl)-1-cyclohexyl-2-oxoethyl)-2-(pyridin-3-yl)thiazole-5-carboxamide] | 29 nM | 16% |  |  |  | 73% | 
